Experimental data from the supplement of paper PMC13380429.

Assays:
Settings in all cases: 72 h
Caco-2 [1] = experiment: cell viability relative to DMSO; higher = less toxic
Calu-3 [2] = experiment: as above
U2OS [3] = experiment: as above
Vero E6 [4] = experiment: as above
Caco-2 [5] = experiment: relative viability EC50 (midpoint between 100% and the lowest measured viability); higher = less toxic
Calu-3 [6] = experiment: as above
U2OS [7] = experiment: as above
Vero E6 [8] = experiment: as above
Caco-2 [9] = experiment: drug sensitivity score (DSS) for viability; higher = more toxic; extreme values may be limits of the assay
Calu-3 [10] = experiment: as above
U2OS [11] = experiment: as above
Vero E6 [12] = experiment: as above
HepG2 = experiment: as above

| SMILES | cell viability (Caco-2 [1]; 1 nM) | cell viability (Caco-2 [1]; 10 nM) | cell viability (Caco-2 [1]; 100 nM) | cell viability (Caco-2 [1]; 1000 nM) | cell viability (Caco-2 [1]; 10000 nM) | cell viability (Calu-3 [2]; 1 nM) | cell viability (Calu-3 [2]; 10 nM) | cell viability (Calu-3 [2]; 100 nM) | cell viability (Calu-3 [2]; 1000 nM) | cell viability (Calu-3 [2]; 10000 nM) | cell viability (U2OS [3]; 1 nM) | cell viability (U2OS [3]; 10 nM) | cell viability (U2OS [3]; 100 nM) | cell viability (U2OS [3]; 1000 nM) | cell viability (U2OS [3]; 10000 nM) | cell viability (Vero E6 [4]; 1 nM) | cell viability (Vero E6 [4]; 10 nM) | cell viability (Vero E6 [4]; 100 nM) | cell viability (Vero E6 [4]; 1000 nM) | cell viability (Vero E6 [4]; 10000 nM) | relative viability EC50 (Caco-2 [5]) | relative viability EC50 (Calu-3 [6]) | relative viability EC50 (U2OS [7]) | relative viability EC50 (Vero E6 [8]) | drug sensitivity score (Caco-2 [9]) | drug sensitivity score (Calu-3 [10]) | drug sensitivity score (U2OS [11]) | drug sensitivity score (Vero E6 [12]) | drug sensitivity score (HepG2) |
| --- | --- | --- | --- | --- | --- | --- | --- | --- | --- | --- | --- | --- | --- | --- | --- | --- | --- | --- | --- | --- | --- | --- | --- | --- | --- | --- | --- | --- | --- |
| COc1ccccc1N1CCN(CCCCN2C(=O)CCC2=O)CC1 [MM77] | 92.4% | 102% | 83.8% | 102% | 106% | 104% | 100% | 96.6% | 114% | 107% | 100% | 101% | 94.9% | 106% | 97.2% | 94.5% | 93.4% | 92.7% | 94% | 110% | > 10 µM | > 10 µM | > 10 µM | > 10 µM | 0 | 0 | 0 | 0 |  |
| CCOC(=O)c1ccc(OCCC2CCN(c3ccc(C)nn3)CC2)cc1 [pirodavir] |  |  |  |  |  |  |  |  |  |  |  |  |  |  |  |  |  |  |  |  |  |  |  |  |  | 0 | 0 | 0 | 0 |
| C[C@]12C=CC(=O)N[C@@H]1CC[C@@H]1[C@@H]2CC[C@]2(C)[C@@H](C(=O)Nc3cc(C(F)(F)F)ccc3C(F)(F)F)CC[C@@H]12 [dutasteride] | 111% | 93% | 105% | 97.4% | 104% | 111% | 99% | 98.2% | 105% | 106% |  |  |  |  |  |  |  |  |  |  | > 10 µM | > 10 µM |  |  | 0 | 0 |  |  |  |
| CCc1cccc(CC)c1NC1=NCCN1 [ST-91] | 102% | 101% | 96.2% | 93.4% | 100% | 104% | 90.2% | 96.6% | 89.6% | 115% | 103% | 98.7% | 104% | 94.8% | 99% | 98.9% | 97.1% | 102% | 98.3% | 93.5% | > 10 µM | > 10 µM | > 10 µM | > 10 µM | 0 | 0 | 0 | 0 |  |
| CNC(=O)COC(=O)NCCC1CCN(c2cccc(C)n2)CC1 [SA-47] | 90.7% | 101% | 97.7% | 99.3% | 94% | 98.4% | 101% | 105% | 103% | 105% | 92.8% | 101% | 103% | 97.7% | 99.2% | 85.7% | 97.6% | 90.7% | 92.7% | 110% | > 10 µM | > 10 µM | > 10 µM | > 10 µM | 0 | 0 | 0 | 0 |  |
| CO[C@@H]1[C@@H](OC(N)=O)[C@@H](O)[C@H](Oc2ccc3c(O)c(NC(=O)c4ccc(O)c(CC=C(C)C)c4)c(=O)oc3c2C)OC1(C)C [novobiocin] | 124% | 92.9% | 109% | 108% | 112% | 98.1% | 101% | 98.8% | 93.6% | 81.2% |  |  |  |  |  |  |  |  |  |  | > 10 µM | > 10 µM |  |  | 0 | 1.1 |  |  |  |
